First: Cc1cc2cc(Cl)ccc2[nH]1
Second: Cc1cc(C(=O)CCl)c(C)n1-c1ccc(Cl)cc1
The melting point of the first is higher: 112 to 118 °C for the first, 88 to 89 °C for the second.

First: O=Cc1ccc(-n2ccnc2)cc1
Second: O=Cc1ccc(Oc2ccccn2)cc1
The melting point of the first is higher: 142 to 145 °C for the first, 45 to 46 °C for the second.

First: CC(=CCNc1ncnc2c1ncn2C1OC(CO)C(O)C1O)CO (stereo not given)
Second: COc1ccc(CC(N)C(=O)NC2C(CO)OC(n3cnc4c(N(C)C)ncnc43)C2O)cc1 (stereo not given)
The melting point of the first is higher: 179 to 180 °C for the first, 176 °C for the second.

Going from `N#CCc1cc(Cl)ccc1[N+](=O)[O-]` to `O=[N+]([O-])c1ccc(F)cc1Cl`, the melting point falls from 87 °C to 35 °C.

First: O=P(OCC(Br)CBr)(OCC(Br)CBr)OCC(Br)CBr (stereo not given)
Second: CCOC(=O)CCCCC(=O)O
The melting point of the first is lower: 5.5 °C for the first, 29 °C for the second.

First: CCCCc1nc(C=O)c(Cl)[nH]1
Second: Cc1nc(C=O)cs1
The melting point of the first is higher: 98 to 100 °C for the first, 56 to 58 °C for the second.

Compared with `Cc1ccccc1NC(=N)NC(=N)N`, `CC(=O)Nc1ccccc1CCc1ccccc1NC(C)=O` is higher in melting point: 144 °C for the first, 250 °C for the second.

Compared with `CCOC(=O)C(C/C=C1\OC(=O)C(OC)=C1OC)S(=O)(=O)c1ccccc1` (stereo not given), `COC(=O)C1(C(=O)OC)Cc2ccccc2C(=O)O1` is higher in melting point: 99 to 101 °C for the first, 113 °C for the second.

First: Fc1ccccc1-c1ccccc1F
Second: c1ccc(C2c3ccccc3-c3ccccc32)cc1
The melting point of the first is lower: 112 to 114 °C for the first, 147 °C for the second.

Compared with `CC(CC1CCCCC1)C1CCCCC1` (stereo not given), `C1CCC2NCCCC2C1` (stereo not given) is higher in melting point: -22 °C for the first, 37.5 to 45 °C for the second.

First: Oc1cccnc1Br
Second: CCSc1ncccc1C(=O)NC(CCSC)C(=O)O (stereo not given)
The melting point of the first is higher: 185 to 188 °C for the first, 121 to 122 °C for the second.

First: CCC(=O)c1ccc(C(F)(F)F)cc1
Second: Cc1nc(-c2ccc(C(F)(F)F)cc2)sc1CO
The melting point of the first is lower: 36 to 37 °C for the first, 119 to 122 °C for the second.

First: NC(=O)NNC(N)=O
Second: CC(=O)OCC#CCOC(C)=O
The melting point of the first is higher: 247 to 250 °C for the first, 28 °C for the second.

First: COc1ccc2[nH]cc(CC(N)C(=O)O)c2c1 (racemic)
Second: COc1ccc2[nH]cc(CC(=O)O)c2c1
The melting point of the first is higher: 258 to 261 °C for the first, 148 to 150 °C for the second.

Compared with `CC(=O)NCCCCCCNC(C)=O`, `CCCC#CCCCCCC` is lower in melting point: 128 to 129 °C for the first, -74.7 °C for the second.

First: Clc1nccc2sccc12
Second: ON=Cc1ccc(Cl)cc1
The melting point of the first is lower: 99 °C for the first, 100 to 102 °C for the second.

Compared with `CCOC(=O)c1csc(N2CCOCC2)n1`, `N#CC(c1ccccc1)N1CCOCC1` (stereo not given) is lower in melting point: 88.5 to 90 °C for the first, 69 to 71 °C for the second.

Compared with `Cc1nn(C)c(Cl)c1I`, `Cc1c(Cl)ncnc1Cl` is lower in melting point: 64 to 65 °C for the first, 58 °C for the second.

Compared with `N#CC(CCc1ccc(Cl)cc1)(Cn1cncn1)c1ccccc1` (stereo not given), `c1ccc(Cc2nc3ccccc3[nH]2)cc1` is higher in melting point: 126 °C for the first, 187 °C for the second.

Compared with `FC(F)(F)C(F)(F)C(F)(F)I`, `N=C(N)C(F)(F)C(F)(F)C(F)(F)F` is higher in melting point: -95 °C for the first, 49 to 51 °C for the second.

Going from `Fc1cccc(CBr)c1C(F)(F)F` to `FC(F)(F)c1nnc(S)n1N=Cc1ccc(Cl)cc1`, the melting point rises from 42 °C to 255 °C.

First: CC(CC(=O)c1ccccc1)c1ccccc1 (stereo not given)
Second: O=C(c1ccccc1)c1ccc(OCc2ccccc2)cc1
The melting point of the first is lower: 70 °C for the first, 82 °C for the second.

Compared with `COc1cccc2cc(C(=O)C3CC(C)(c4ccccc4)C3)oc12` (stereo not given), `COc1cccc2cc(C(C)=O)oc12` is lower in melting point: 104 to 105 °C for the first, 93 °C for the second.

Compared with `O=C(Nc1ccccc1)Nc1nnc(C(F)(F)F)s1`, `CC(C)(C)C(=O)NNCc1ccccc1` is lower in melting point: 149 to 151 °C for the first, 68.5 °C for the second.

First: CCC(C)C(=O)OC1CCC=C2C=CC(C)C(CCC3CC(O)CC(=O)O3)C21 (stereo not given)
Second: Cc1ccc2c(c1C)CCC1C2CCC2CC(O)CCC21C (stereo not given)
The melting point of the first is lower: 152 °C for the first, 188 °C for the second.

First: COc1ccc(C(=O)c2nn(-c3ccccc3)/c(=N\N=Cc3ccccc3Cl)s2)cc1
Second: CON(C)C(=O)C=P(c1ccccc1)(c1ccccc1)c1ccccc1
The melting point of the first is lower: 181 °C for the first, 183 °C for the second.

First: N#Cc1c(N)oc(-c2ccccc2)c1-c1ccccc1
Second: COc1cccc2oc(-c3ccccc3)cc(=O)c12
The melting point of the first is higher: 205 to 208 °C for the first, 130 °C for the second.

Compared with `Cc1ccc(NC(=O)CCC2C(=O)C3(C)CCC2C3(C)C)cc1` (stereo not given), `CON(C)C(=O)Nc1ccc(Cl)cc1` is lower in melting point: 114 °C for the first, 81.5 °C for the second.

`CC(=O)C(C(C)=O)=C1SCCS1` and `CN(CC(=O)O)C(=O)OC(C)(C)C` are the same in melting point: 91 °C for the first, 91 °C for the second.

First: CCOc1ccc(F)cc1
Second: CCC(c1ccc2cc(OC)ccc2c1)C(C)(C)C(=O)O (stereo not given)
The melting point of the first is lower: -8.5 °C for the first, 140 °C for the second.

Compared with `CC(=O)OC1CC2C(C)C(=O)C3(C(OC(C)=O)CC4C(C)(C)CCC(OC(C)=O)C4(C=O)C13)C2OC(C)=O` (stereo not given), `C=C(C)C(=O)OC1CC2CCC1(C)C2(C)C` (stereo not given) is lower in melting point: 250 to 252 °C for the first, -60 °C for the second.

Compared with `CCC(N)C(=O)O` (stereo not given), `CCC(CC)C(=O)O` is lower in melting point: 304 °C for the first, -14 °C for the second.

Compared with `Cc1ccncc1C(=O)NN`, `Cc1cccc(C)c1NC(=O)C(C)Br` (stereo not given) is lower in melting point: 177 °C for the first, 163 to 165 °C for the second.

Compared with `COc1ccc(C#N)cc1Br`, `COc1ccc(C#N)cc1OC` is lower in melting point: 122 °C for the first, 67 °C for the second.

First: Nc1c(F)cc(Cl)cc1Br
Second: Nc1c([N+](=O)[O-])cc(Cl)cc1[N+](=O)[O-]
The melting point of the first is lower: 41 to 43 °C for the first, 147 °C for the second.

First: CCCSc1sc(C(=O)OC)c2c1C(=O)CC(C)(C)C2
Second: CCOC(=O)C1=C(C)NC(=O)NC1c1cccc(Cl)c1Cl (stereo not given)
The melting point of the first is lower: 95 to 98 °C for the first, 243 °C for the second.

Going from `COc1c(Br)c(C)c(Br)c(Br)c1OC` to `COc1cc(NCc2ccc3nc(N)nc(N)c3c2C)cc(OC)c1OC`, the melting point rises from 90 °C to 216 °C.

First: O=S(=O)(c1ccc(Cl)cc1)C(F)(F)C(F)Cl (stereo not given)
Second: O=C1CCCN1c1ccc(Cl)cc1
The melting point of the first is lower: 55 to 57 °C for the first, 95 to 98 °C for the second.

First: c1cc2c(cc1OC1OCC3C(c4ccc5c(c4)OCO5)OCC13)OCO2 (stereo not given)
Second: CC(=O)NC1C(OCc2ccccc2)OC2COC(c3ccccc3)OC2C1OC(C)C(=O)O (stereo not given)
The melting point of the first is lower: 93.5 °C for the first, 220 to 222 °C for the second.

First: CNc1ccc(NCCO)c2c1C(=O)c1ccccc1C2=O
Second: N#CC1=C(C#N)C(=O)C(NCCCc2ccccc2)=C(Cl)C1=O
The melting point of the first is higher: 187 °C for the first, 179 °C for the second.

First: CCOc1cc(C(=S)N2CCCCC2)ccc1O
Second: Nc1cccc2c1CCCC2
The melting point of the first is higher: 123 °C for the first, 38 °C for the second.

First: c1ccc2sc(Cc3nc4ccccc4s3)nc2c1
Second: Cc1ccccc1Nc1[nH]c(=S)nnc1-c1ccccc1
The melting point of the first is lower: 92 to 96 °C for the first, 294 °C for the second.

First: CC1CCCC(C)C1 (stereo not given)
Second: O=C(NC1CCCCC1)C(C(F)(F)F)C(F)(F)F
The melting point of the first is lower: -90.1 °C for the first, 190 to 192 °C for the second.

First: CCN(CC)c1ccc(C=C2SC(=S)NC2=O)cc1
Second: O=c1[nH]c2ccccc2n1-c1ccccc1
The melting point of the first is lower: 163 °C for the first, 207 °C for the second.

Compared with `Cc1ccc(C2NC(=O)NC(c3ccc(C)cc3)C2(C#N)C(=O)c2ccccc2)cc1` (stereo not given), `Cc1nc2scc(-c3ccccc3)c2c(=O)n1NC(=O)c1cccc(C(F)(F)F)c1` is lower in melting point: 234 to 235 °C for the first, 134 to 138 °C for the second.

First: Cc1oc(C(C)(C)C)cc1C(=O)O
Second: CC(C)(C)C1=NNC(=O)C1
The melting point of the first is lower: 92 °C for the first, 210 °C for the second.

First: N#CCc1ccccc1Br
Second: O=CC(Br)=Cc1ccccc1
The melting point of the first is lower: 19 °C for the first, 70 °C for the second.

Compared with `Cn1c(=O)[nH]c2ccccc21`, `CC(C)N1C(=O)c2ccccc2NS1(=O)=O` is lower in melting point: 192 to 196 °C for the first, 140 °C for the second.

Compared with `Clc1ccc2c(c1)N=C(N1CCN(C3=Nc4cc(Cl)ccc4Nc4ccccc43)CC1)c1ccccc1N2`, `C=CCOC(=O)N1CCN(C(=O)OCC2c3ccccc3-c3ccccc32)C(C(=O)O)C1` (stereo not given) is lower in melting point: 333 to 335 °C for the first, 63 °C for the second.

Compared with `CC(C)(C)OC(=O)NC(CI)C(=O)OCc1ccccc1` (stereo not given), `CCC(=O)C=Cc1ccccc1` is lower in melting point: 81 °C for the first, 38.5 °C for the second.

First: Oc1ccc(-n2cccc2)cc1
Second: Nc1ccccc1-n1cccc1
The melting point of the first is higher: 119 to 124 °C for the first, 94 to 98 °C for the second.

First: Nc1c(Cl)c(Cl)nc(Cl)c1Cl
Second: Clc1cc(Cl)c2c(oc3ccc(Cl)c(Cl)c32)c1Cl
The melting point of the first is higher: 212 to 215 °C for the first, 210 °C for the second.

Compared with `Nc1ncc(S(=O)(=O)c2ccc([N+](=O)[O-])cc2)s1`, `O=[N+]([O-])c1ccc(CCO)cc1` is lower in melting point: 222 to 226 °C for the first, 63 °C for the second.

Compared with `COc1cc(C)ccc1S(=O)(=O)Cl`, `O=S(=O)(Cl)c1ccccc1I` is lower in melting point: 87 °C for the first, 51 to 52 °C for the second.

First: O=c1occc2ccccc12
Second: Cc1noc(-c2ccccc2)c1CO
The melting point of the first is lower: 47 °C for the first, 109 to 110 °C for the second.

Compared with `CC(C)(CO)NCC(O)CS(=O)(=O)O` (stereo not given), `Cc1cccc(OCC(O)CNC(C)(C)C)c1C` (stereo not given) is lower in melting point: 215 to 225 °C for the first, 57 °C for the second.

First: Cn1nccc1N
Second: CC(=O)Nc1ccc(-c2csc(N)n2)cc1
The melting point of the first is lower: 73 to 76 °C for the first, 250 °C for the second.

First: CC(C)OC(=O)[C@H](C)O
Second: CC(C)[C@H](N)P(=O)(O)O
The melting point of the first is lower: 1 °C for the first, 270 °C for the second.

Going from `NC(=O)C1=CN(C2OC(COP(=O)(O)OP(=O)(O)OCC3OC(n4cnc5c(N)ncnc54)C(O)C3O)C(O)C2O)C=CC1` (stereo not given) to `NC(=O)c1nc(-c2ccccc2)n(-c2ccc(Cl)c(COCC(F)(F)C(F)(F)F)c2)n1`, the melting point rises from 141 °C to 146 °C.

First: Nc1cc(Cl)c([N+](=O)[O-])cc1N
Second: OCCNc1nccnc1Cl
The melting point of the first is higher: 189 to 193 °C for the first, 54 to 58 °C for the second.

First: C1=C[C@@H](OCc2ccccc2)[C@H](OCc2ccccc2)[C@@H](COCc2ccccc2)O1
Second: OC(c1ccccc1)(c1ccccc1)C(O)(c1ccccc1)c1ccccc1
The melting point of the first is lower: 54 to 57 °C for the first, 184 to 186 °C for the second.

Compared with `O=C1CCCO1`, `O=C1C=CC2C3C=CC(C3)C12` (stereo not given) is higher in melting point: -43.3 °C for the first, 56 °C for the second.

First: CC12CCC3C(CCC4CC=CCC43C)C1CC=C2CCc1ccccc1 (stereo not given)
Second: N=c1sc(C(=O)c2cccs2)nn1-c1[nH]nc(-c2ccccc2)c1Br
The melting point of the first is higher: 118 °C for the first, 102 to 103 °C for the second.

Compared with `CC(C)COC=O`, `CC=CC(C)C` is lower in melting point: -95.8 °C for the first, -120 °C for the second.

First: Cc1nc(NC(=O)NS(=O)(=O)c2cccs2)nc(O)c1C
Second: Cc1[nH]c(C)c(C)c1C
The melting point of the first is higher: 219 to 221 °C for the first, 111 °C for the second.
